Measurements reported in PMC3000476, “Amino acid derivatives are substrates or non-transported inhibitors of the amino acid transporter PAT2 (slc36a2)” (Biochimica et Biophysica Acta, 2011).
Each block holds one compound with its values, some of them ahead of it.

Legend:
PAT2 [1] = biological target: T1, PAT2 (Rattus norvegicus, UniProt Q8K415); experiment: L-[3H]pipecolic acid uptake and TEVC competition with glycine in PAT2-expressing oocytes; type: cell-based
T1 construct: gene Slc36a2

PAT2 [2] = biological target: T1, PAT2; experiment: inhibition of L-[3H]proline uptake in PAT2-expressing Xenopus oocytes; TEVC; no trans-stimulation of efflux; type: cell-based
PAT2 [3] = biological target: T1, PAT2; experiment: competition with L-[3H]proline uptake in PAT2-expressing Xenopus oocytes; type: cell-based
PAT2 [4] = biological target: T1, PAT2; experiment: competition with L-[3H]proline uptake in PAT2-expressing Xenopus oocytes; TEVC; type: cell-based
PAT2 [5] = biological target: T1, PAT2; experiment: inhibition of L-proline-induced current (TEVC) in PAT2-expressing oocytes; also uptake inhibition IC50 […]; type: cell-based
PAT2 [6] = biological target: T1, PAT2

T1 sequence (Q8K415 whole entry): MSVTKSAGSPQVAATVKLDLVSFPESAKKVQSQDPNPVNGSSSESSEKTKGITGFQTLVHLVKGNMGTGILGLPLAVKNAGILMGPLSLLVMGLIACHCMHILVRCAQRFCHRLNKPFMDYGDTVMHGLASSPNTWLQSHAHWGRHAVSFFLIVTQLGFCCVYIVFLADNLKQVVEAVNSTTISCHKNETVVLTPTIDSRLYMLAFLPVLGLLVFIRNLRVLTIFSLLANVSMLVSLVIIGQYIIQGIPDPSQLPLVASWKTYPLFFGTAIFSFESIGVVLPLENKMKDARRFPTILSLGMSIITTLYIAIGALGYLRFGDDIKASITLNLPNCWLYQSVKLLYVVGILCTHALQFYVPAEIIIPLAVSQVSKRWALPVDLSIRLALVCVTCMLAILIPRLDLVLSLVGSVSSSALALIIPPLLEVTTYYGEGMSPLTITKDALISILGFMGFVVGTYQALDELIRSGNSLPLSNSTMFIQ

Structure (SMILES): O=C(O)[C@@H]1CCCCN1 [L-Pip, L-pipecolic acid]
L-[3H]pipecolic acid uptake (PAT2 [1]): 224 ± 19 pmol oocyte^− 1 (40 min)^− 1

Structure (SMILES): CC(N)(Cc1c[nH]c2ccccc12)C(=O)O (racemic) [Me-Trp, α-methyl-D,L-tryptophan]
IC50 (PAT2 [5]): 2.7 ± 0.1 mM

Structure (SMILES): NCC(=O)O [Gly, glycine]
[3H]glycine uptake, TEVC current and trans-stimulation of L-[3H]proline efflux i (PAT2 [6]): 934 ± 22 pmol oocyte^− 1 (40 min)^− 1

Now from value to compound:

IC50 (PAT2 [2]): 1.6 ± 0.4 mM
Structure (SMILES): N[C@@H](Cc1c[nH]c2ccc(O)cc12)C(=O)O [OH-Trp, 5-hydroxy-L-tryptophan]

IC50 (PAT2 [3]): 700 ± 200 µM
Structure (SMILES): O=C(O)[C@@H]1C[C@@H](O)CN1 [T4HP, trans-4-hydroxy-L-proline]

IC50 (PAT2 [4]): 13.1 ± 4.2 mM
Structure (SMILES): O=C(O)[C@H]1NCC[C@@H]1O [T3HP, trans-3-hydroxy-L-proline]
